From PMC11052071, “Novel JAK Inhibitors to Reduce Graft-Versus-Host Disease after Allogeneic Hematopoietic Cell Transplantation in a Preclinical Mouse Model” (Molecules, 2024)

Legend:
JAK3 = target: T1, JAK3 (Homo sapiens, UniProt P52333); assay: Z'-LYTE enzyme activity assay (SelectScreen Kinase Profiling), JAK3
T1 sequence (P52333 1-1124): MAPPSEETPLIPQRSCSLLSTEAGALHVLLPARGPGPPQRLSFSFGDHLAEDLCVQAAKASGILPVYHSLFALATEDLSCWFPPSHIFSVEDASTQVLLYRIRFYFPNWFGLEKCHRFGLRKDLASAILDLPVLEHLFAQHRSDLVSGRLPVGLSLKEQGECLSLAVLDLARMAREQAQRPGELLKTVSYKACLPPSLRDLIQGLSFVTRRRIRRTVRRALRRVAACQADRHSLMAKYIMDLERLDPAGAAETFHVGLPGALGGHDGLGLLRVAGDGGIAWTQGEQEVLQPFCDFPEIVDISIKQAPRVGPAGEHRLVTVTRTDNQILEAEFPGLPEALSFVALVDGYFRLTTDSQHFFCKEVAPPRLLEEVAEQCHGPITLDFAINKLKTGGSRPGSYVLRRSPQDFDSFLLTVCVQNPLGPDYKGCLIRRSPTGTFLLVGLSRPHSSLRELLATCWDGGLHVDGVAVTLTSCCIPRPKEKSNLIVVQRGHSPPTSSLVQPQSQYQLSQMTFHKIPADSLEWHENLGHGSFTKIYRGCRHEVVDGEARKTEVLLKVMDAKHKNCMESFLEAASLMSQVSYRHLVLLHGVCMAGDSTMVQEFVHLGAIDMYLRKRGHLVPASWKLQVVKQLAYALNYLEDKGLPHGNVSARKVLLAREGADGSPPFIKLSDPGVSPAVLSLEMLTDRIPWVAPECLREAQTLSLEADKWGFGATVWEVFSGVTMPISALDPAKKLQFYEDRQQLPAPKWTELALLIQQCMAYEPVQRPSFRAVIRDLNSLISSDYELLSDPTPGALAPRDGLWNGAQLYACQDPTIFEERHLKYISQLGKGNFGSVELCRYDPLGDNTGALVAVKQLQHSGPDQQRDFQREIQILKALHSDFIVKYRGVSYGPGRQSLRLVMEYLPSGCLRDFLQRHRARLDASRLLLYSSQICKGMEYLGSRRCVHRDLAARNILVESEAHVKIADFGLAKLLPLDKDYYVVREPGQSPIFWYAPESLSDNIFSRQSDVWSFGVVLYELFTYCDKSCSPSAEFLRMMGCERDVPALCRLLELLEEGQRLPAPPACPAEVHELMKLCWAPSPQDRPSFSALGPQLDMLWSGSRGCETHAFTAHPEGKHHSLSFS

CXCR3 = CXCR3 expression in activated primary murine T cells (flow cytometry); format: cell-based, B6 mice; settings: anti-CD3/CD28 activated, 3 days, dose-dependent (0.32-1000 nM)
Text: To identify the top candidates whose effects on GvHD will be further tested in vivo, we next screened the WU derivatives by evaluating their functional inhibitory activity on the expression of CXCR3 in primary murine T cells activated by anti-CD3/CD28 beads. CXCR3 is a chemokine receptor and surrogate marker of IFNGR-JAK1/JAK2 signaling.
Figure 3 Inhibitory effect of WU derivatives on the expression of CXCR3 compared to commercially available JAK inhibitors in primary murine T cells. Primary murine T cells were isolated from B6 mice and treated with WU derivatives or known JAK inhibitors (in the order of doses of each drug from the left: 0, 0.32, 1.6, 8, 40, 200, 1000 nM) in the presence of anti-CD3/CD28 activators. After 3 days, the expression of CXCR3 on (A) CD3, (B) CD4, and (C) CD8 T cells was determined by flow cytometry.
T cells from in vitro primary murine T cell culture, fresh peripheral blood, or whole splenocytes were analyzed according to cell surface and intracellular markers. Surface markers were directly stained with flow antibodies for 20 min at 4 °C. For intracellular staining (FOXP3 and T-bet), cells were fixed and permeabilized after surface staining using appropriate buffers (One-step intracellular nuclear protein staining protocol, eBioscience, San Diego, CA, USA) and stained with flow antibodies. The antibodies used for flow cytometric analyses for mouse cells were as follows: FOXP3, T-BET, and CD183 (eBioscience, San Diego, CA, USA); CD3, H2-Kb, H2-Kd, CD4, B220, CD11b, CD11c, Ly6C, and DEC205 (BioLegend, San Diego, CA); and CD8, CD45.2, CD80, and Ly6G (BD Pharmingen, San Jose, CA, USA). All cells were run on a ZE5 Cell Analyzer (BD Biosciences, Mountain View, CA, USA) or Attune® NxT (Thermofisher Scientific, Waltham, MA, USA) and analyzed with the FlowJo software, version 10.9.0 (FlowJo LLC., Ashland, OR, USA). […]

JAK1 = JAK1 (Homo sapiens, UniProt P23458); assay: Z'-LYTE enzyme activity assay (SelectScreen Kinase Profiling), JAK1
JAK1, sequence (P23458 whole entry): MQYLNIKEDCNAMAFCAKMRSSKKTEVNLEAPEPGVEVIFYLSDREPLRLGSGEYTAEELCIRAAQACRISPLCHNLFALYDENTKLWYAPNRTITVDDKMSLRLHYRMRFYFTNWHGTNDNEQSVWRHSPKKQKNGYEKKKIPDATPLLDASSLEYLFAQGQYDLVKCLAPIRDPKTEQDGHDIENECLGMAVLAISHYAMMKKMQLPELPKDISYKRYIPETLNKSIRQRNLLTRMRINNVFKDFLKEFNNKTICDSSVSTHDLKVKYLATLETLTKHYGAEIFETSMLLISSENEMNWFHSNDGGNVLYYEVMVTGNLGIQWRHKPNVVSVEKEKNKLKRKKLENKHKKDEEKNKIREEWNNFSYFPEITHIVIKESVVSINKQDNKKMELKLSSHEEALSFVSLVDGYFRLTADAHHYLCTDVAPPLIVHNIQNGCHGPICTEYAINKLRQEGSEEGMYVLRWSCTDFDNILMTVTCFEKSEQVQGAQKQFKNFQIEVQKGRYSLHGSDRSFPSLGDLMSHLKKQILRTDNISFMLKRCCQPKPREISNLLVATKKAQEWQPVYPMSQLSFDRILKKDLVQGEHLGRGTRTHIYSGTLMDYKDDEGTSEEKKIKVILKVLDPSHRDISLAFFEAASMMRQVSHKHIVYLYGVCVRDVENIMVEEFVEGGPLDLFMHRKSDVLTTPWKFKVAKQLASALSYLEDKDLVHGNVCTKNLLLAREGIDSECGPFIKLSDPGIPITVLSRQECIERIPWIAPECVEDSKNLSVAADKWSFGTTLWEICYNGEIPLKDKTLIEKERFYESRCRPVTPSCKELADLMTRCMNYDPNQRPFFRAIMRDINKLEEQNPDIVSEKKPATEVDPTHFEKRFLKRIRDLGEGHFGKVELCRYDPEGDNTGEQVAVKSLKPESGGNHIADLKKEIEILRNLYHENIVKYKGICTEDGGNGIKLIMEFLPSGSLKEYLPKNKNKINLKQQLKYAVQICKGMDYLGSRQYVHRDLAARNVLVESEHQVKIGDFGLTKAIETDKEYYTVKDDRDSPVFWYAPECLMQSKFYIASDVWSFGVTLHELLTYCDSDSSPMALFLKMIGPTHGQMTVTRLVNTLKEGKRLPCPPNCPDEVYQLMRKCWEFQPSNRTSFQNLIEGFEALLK

CCS(=O)(=O)NC1CC2(C1)CC(CC#N)(n1cc(-c3ncnc4[nH]ccc34)cn1)C2 (stereo not drawn) [WU4]
IC50 (JAK3; IC50 JAK3, ATP at 1 mM): 84 nM
IC50 (JAK3; IC50 JAK3, ATP at app. Km): 1.14 nM
CXCR3 expression on T cells (CXCR3): significant reductions in CXCR3 expression
IC50 (JAK1; IC50 JAK1, ATP at 1 mM): 0.52 nM
IC50 (JAK1; IC50 JAK1, ATP at app. Km): 0.453 nM

N#CCC1(n2cc(-c3ncnc4[nH]ccc34)cn2)CC2(CC(NS(=O)(=O)C(F)(F)F)C2)C1 (stereo not drawn) [WU6]
IC50 (JAK3; IC50 JAK3, ATP at 1 mM): 311 nM
IC50 (JAK3; IC50 JAK3, ATP at app. Km): 6.4 nM
CXCR3 expression on T cells (CXCR3): significantly downregulated
IC50 (JAK1; IC50 JAK1, ATP at 1 mM): 3.43 nM
IC50 (JAK1; IC50 JAK1, ATP at app. Km): 0.6 nM

N#CCC1(n2cc(-c3ncnc4[nH]ccc34)cn2)CCS(=O)(=O)CC1 [WU8]
IC50 (JAK3; IC50 JAK3, ATP at 1 mM): 549 nM
IC50 (JAK3; IC50 JAK3, ATP at app. Km): 18.3 nM
CXCR3 expression on T cells (CXCR3): significant reductions in CXCR3 expression
IC50 (JAK1; IC50 JAK1, ATP at 1 mM): 7.15 nM
IC50 (JAK1; IC50 JAK1, ATP at app. Km): 1.07 nM
